Experimental data from PubChem BioAssay (NCI).
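Dose response: 5 concentrations. Exposure: 48 h. Format: 96-well plates. Endpoint: linear interpolation; highest concentration if not reached. Here, GI50 denotes the concentration required for 50% inhibition of growth. Definition used: TGI = concentration required for complete inhibition of growth.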

Legend:
Assay in all cases: DTP human tumour cell line panel, 48 h
786-0 renal = system: 786-0 renal
A549 NSCLC = system: A549 NSCLC
DU-145 prostate = system: DU-145 prostate
LOX IMVI melanoma = system: LOX IMVI melanoma
RPMI-8226 leukemia = system: RPMI-8226 leukemia
SK-MEL-2 melanoma = system: SK-MEL-2 melanoma
SK-MEL-28 melanoma = system: SK-MEL-28 melanoma
SN12C renal = system: SN12C renal
SNB-19 CNS = system: SNB-19 CNS
HL-60(TB) leukemia = system: HL-60(TB) leukemia

CN(C)CCNC(=O)c1cccc2c(NCCN(C)C)c3ccccc3nc12
TGI (786-0 renal): 6.65 µM
TGI (A549 NSCLC): 6.05 µM
TGI (DU-145 prostate): 28.2 µM
TGI (LOX IMVI melanoma): 4.75 µM
TGI (RPMI-8226 leukemia): 7.92 µM
TGI (SK-MEL-2 melanoma): 17.6 µM
TGI (SK-MEL-28 melanoma): 28.6 µM
TGI (SN12C renal): 5.94 µM
TGI (SNB-19 CNS): 26.3 µM

CC(=O)OCCCOCn1c(Cc2ccccc2)c(C)c(=O)[nH]c1=O
TGI (786-0 renal): > 100 µM
TGI (A549 NSCLC): > 100 µM
TGI (DU-145 prostate): > 100 µM
TGI (LOX IMVI melanoma): > 100 µM
TGI (RPMI-8226 leukemia): > 100 µM
TGI (SK-MEL-2 melanoma): > 100 µM
TGI (SK-MEL-28 melanoma): > 100 µM
TGI (SN12C renal): > 100 µM
TGI (SNB-19 CNS): > 100 µM

CC(O)c1cc2c(s1)C(=O)c1sccc1C2=O (centres undefined)
TGI (786-0 renal): 0.538 µM
TGI (A549 NSCLC): 0.767 µM
TGI (DU-145 prostate): 0.0347 µM
TGI (HL-60(TB) leukemia): > 100 µM
TGI (LOX IMVI melanoma): 0.29 µM
TGI (SK-MEL-2 melanoma): 0.215 µM
TGI (SK-MEL-28 melanoma): 0.479 µM
TGI (SN12C renal): 0.192 µM
TGI (SNB-19 CNS): 0.292 µM

CC[C@H](O)[C@H](C)C=C1SCCCS1
TGI (786-0 renal): > 100 µM
TGI (A549 NSCLC): > 100 µM
TGI (DU-145 prostate): > 100 µM
TGI (HL-60(TB) leukemia): 89.7 µM
TGI (LOX IMVI melanoma): > 100 µM
TGI (RPMI-8226 leukemia): > 100 µM
TGI (SK-MEL-2 melanoma): > 100 µM
TGI (SK-MEL-28 melanoma): > 100 µM
TGI (SN12C renal): > 100 µM

Cc1c(Cl)nc(Nc2nc3ccccc3[nH]2)nc1Cl
TGI (786-0 renal): > 100 µM
TGI (A549 NSCLC): > 100 µM
TGI (DU-145 prostate): > 100 µM
TGI (HL-60(TB) leukemia): > 100 µM
TGI (RPMI-8226 leukemia): > 100 µM
TGI (SK-MEL-2 melanoma): > 100 µM
TGI (SK-MEL-28 melanoma): > 100 µM
TGI (SN12C renal): > 100 µM
TGI (SNB-19 CNS): > 100 µM

N#CC1=C(N)n2c(s/c(=C\c3ccc(Cl)cc3)c2=O)=C(c2nc3ccccc3[nH]2)C1c1ccc(Cl)cc1 (centres undefined)
TGI (786-0 renal): 4.96 µM
TGI (A549 NSCLC): 10.9 µM
TGI (HL-60(TB) leukemia): 6.45 µM
TGI (LOX IMVI melanoma): 3.23 µM
TGI (RPMI-8226 leukemia): 4.65 µM
TGI (SK-MEL-2 melanoma): 4.21 µM
TGI (SK-MEL-28 melanoma): 3.03 µM
TGI (SN12C renal): 4.6 µM
TGI (SNB-19 CNS): > 100 µM

O=C(Nc1cccc(-n2ccc3c(NC(=O)c4ccccc4)nccc32)c1)Nc1cc(C(F)(F)F)cc(C(F)(F)F)c1
GI50 (A549 NSCLC): 1970 nM
TGI (A549 NSCLC): > 50 µM
GI50 (DU-145 prostate): 1680 nM
TGI (DU-145 prostate): 7.97 µM
GI50 (HL-60(TB) leukemia): 1720 nM
TGI (HL-60(TB) leukemia): 5.01 µM
GI50 (LOX IMVI melanoma): 2120 nM
TGI (LOX IMVI melanoma): > 50 µM
GI50 (RPMI-8226 leukemia): 1130 nM
TGI (RPMI-8226 leukemia): 2.85 µM
GI50 (SK-MEL-2 melanoma): 1320 nM
TGI (SK-MEL-2 melanoma): 4.68 µM
GI50 (SK-MEL-28 melanoma): 2140 nM
TGI (SK-MEL-28 melanoma): > 50 µM
GI50 (SN12C renal): 2050 nM
TGI (SN12C renal): 29.4 µM
GI50 (SNB-19 CNS): 2320 nM
TGI (SNB-19 CNS): > 50 µM

Cc1cccc2c(=O)c([Se]c3coc4c(C)cccc4c3=O)coc12
TGI (786-0 renal): 31 µM
TGI (A549 NSCLC): 23.9 µM
TGI (HL-60(TB) leukemia): > 100 µM
TGI (LOX IMVI melanoma): 35.5 µM
TGI (RPMI-8226 leukemia): > 100 µM
TGI (SK-MEL-2 melanoma): 33.5 µM
TGI (SK-MEL-28 melanoma): 32.5 µM
TGI (SN12C renal): 37.9 µM
TGI (SNB-19 CNS): 47.4 µM

CN(C)c1ccc(C(=C(c2ccc(N(C)C)cc2)c2ccc(N(C)C)cc2)c2ccc(N(C)C)cc2)cc1
TGI (786-0 renal): 23.7 µM
TGI (A549 NSCLC): 31.4 µM
TGI (HL-60(TB) leukemia): 26.5 µM
TGI (LOX IMVI melanoma): 31.2 µM
TGI (RPMI-8226 leukemia): 47.6 µM
TGI (SK-MEL-2 melanoma): 28.5 µM
TGI (SK-MEL-28 melanoma): 29.4 µM
TGI (SN12C renal): 35.2 µM
TGI (SNB-19 CNS): 29.4 µM

Cc1ccsc1/C=N/Nc1nc2ccccc2s1
TGI (786-0 renal): 24.7 µM
TGI (A549 NSCLC): 50.5 µM
TGI (DU-145 prostate): > 100 µM
TGI (LOX IMVI melanoma): > 100 µM
TGI (RPMI-8226 leukemia): 72.2 µM
TGI (SK-MEL-2 melanoma): 75.3 µM
TGI (SK-MEL-28 melanoma): > 100 µM
TGI (SN12C renal): 41.3 µM
TGI (SNB-19 CNS): 26.9 µM
